The assay concerns the target T1, SIRT1 (Homo sapiens, UniProt Q96EB6).
T1 sequence (Q96EB6 1-747): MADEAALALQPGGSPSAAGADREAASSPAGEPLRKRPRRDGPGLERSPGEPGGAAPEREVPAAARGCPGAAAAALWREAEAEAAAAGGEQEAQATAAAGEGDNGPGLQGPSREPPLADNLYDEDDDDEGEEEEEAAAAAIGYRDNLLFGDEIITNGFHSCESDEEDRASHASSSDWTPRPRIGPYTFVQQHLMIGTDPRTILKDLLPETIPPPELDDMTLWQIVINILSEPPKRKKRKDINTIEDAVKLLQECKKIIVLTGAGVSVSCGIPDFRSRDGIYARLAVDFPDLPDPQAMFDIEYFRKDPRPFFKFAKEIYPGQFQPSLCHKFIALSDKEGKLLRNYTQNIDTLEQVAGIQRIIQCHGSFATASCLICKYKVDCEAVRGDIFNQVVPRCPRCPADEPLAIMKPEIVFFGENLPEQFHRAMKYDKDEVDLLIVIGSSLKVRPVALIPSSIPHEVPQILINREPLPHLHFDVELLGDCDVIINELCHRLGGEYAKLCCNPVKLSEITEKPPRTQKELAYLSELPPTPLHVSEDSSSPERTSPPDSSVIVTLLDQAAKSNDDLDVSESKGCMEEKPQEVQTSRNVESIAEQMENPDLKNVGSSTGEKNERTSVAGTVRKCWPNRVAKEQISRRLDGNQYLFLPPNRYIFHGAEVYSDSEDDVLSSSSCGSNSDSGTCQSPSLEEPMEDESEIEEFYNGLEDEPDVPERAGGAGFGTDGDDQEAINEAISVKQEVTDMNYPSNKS
As to the kind of experiment: Trp mass spectrometry assay of SIRT1 activity. The assay is classed as biochemical. To be noted: Trp assay; for Trp EC1.5 (μM): concentration giving 150% activation of SIRT1; for Emax: percent maximum fold activation, read-out: Trp % Fold Act. The text has this: Mass spectrometry based assays were used to identify modulators of SIRT1 activity. The TAMRA based assay utilized a peptide having 20 amino acid residues as follows: Ac-EE-K(biotin)-[…](Ac)NleSTEG-K(5TMR)-EE-NH2 (SEQ ID NO: 1), wherein K(Ac) is an acetylated lysine residue and Nle is a norleucine. The peptide was labeled with the fluorophore 5TMR (excitation 540 nm/emission 580 nm) at the C-terminus. The sequence of the peptide substrate was based on p53 with several modifications. In addition, the methionine residue naturally present in the sequence was replaced with the norleucine because the methionine may be susceptible to oxidation during synthesis and purification. The Trp based assay utilized a peptide having an amino acid residues as follows: Ac-R-H-K-K(Ac)-W-NH2 (SEQ ID NO: 2).
The Trp mass spectrometry assay was conducted as follows. 0.5 μM peptide substrate and 120 μM βNAD^+ were incubated with 10 nM SIRT1 for 25 minutes at 25° C. in a reaction buffer (50 mM HEPES pH 7.5, […], 1 mM DTT, 0.05% BSA). The SIRT1 protein was obtained by cloning the SirT1 gene into a T7-promoter containing vector, which was then expressed in BL21(DE3) bacterial cells and purified as described in further detail below. Test compound was added at varying concentrations to this reaction mixture and the resulting reactions were monitored. After the 25 minute incubation with SIRT1, 10 μL of 10% formic acid was added to stop the reaction. The resulting reactions were sealed and frozen for later mass spec analysis. The relative SIRT1 activity was then determined by measuring the amount of O-acetyl-ADP-ribose (OAADPR) formed (or, alternatively, the amount of deacetylated Trp peptide generated) by the NAD-dependent sirtuin deacetylation reaction in the presence of varying concentrations of the test compound versus control reactions lacking the test compound. The degree to which the test agent activated deacetylation by SIRT1 was expressed as EC1.5 (i.e., the concentration of compound required to increase SIRT1 activity by 50% over the control lacking test compound), and Percent Maximum Activation (i.e., the maximum activity relative to control (100%) obtained for the test compound).
A control for inhibition of sirtuin activity was conducted by adding 1 μL of 500 mM nicotinamide as a negative control at the start of the reaction (e.g., permits determination of maximum sirtuin inhibition). A control for activation of sirtuin activity was conducted using 10 nM of sirtuin protein, with 1 μL of DMSO in place of compound, to determine the amount of deacetylation of the substrate at a given time point within the linear range of the assay. This time point was the same as that used for test compounds and, within the linear range, the endpoint represents a change in velocity.
For the above assay, SIRT1 protein was expressed and purified as follows. The SirT1 gene was cloned into a T7-promoter containing vector and transformed into BL21(DE3). The protein was expressed by induction with 1 mM IPTG as an N-terminal His-tag fusion protein at 18° C. overnight and harvested at 30,000×g. Cells were lysed with lysozyme in lysis buffer (50 mM Tris-HCl, 2 mM Tris[2-carboxyethyl]phosphine (TCEP), 10 μM ZnCl2, 200 mM NaCl) and further treated with sonication for […] for complete lysis. The protein was purified over a Ni-NTA column (Amersham) and fractions containing pure protein were pooled, concentrated and run over a sizing column (Sephadex S200 26/60 global). The peak containing soluble protein was collected and run on an Ion-exchange column (MonoQ). Gradient elution (200 mM-500 mM NaCl) yielded pure protein. This protein was concentrated and dialyzed against dialysis buffer (20 mM Tris-HCl, 2 mM TCEP) overnight. The protein was aliquoted and frozen at −80° C. until further use.

This note sets out measurements from patent publication US9957271B2, “Substituted bicyclic aza-heterocycles and analogues as sirtuin modulators” (GlaxoSmithKline, LLC, priority 2012, dated 2018).

Each structure is given as a SMILES string. Where only a bound is given, the exact number is not on record here.

In the case of `Cc1nc2ccc(N3CC[C@H](N(C)C)C3)nn2c1C(=O)Nc1cccnn1` [Compound 880], the “Trp EC1.5 (μM)” value is “B (EC1.5 1-25 μM)” and the Emax is less than 350%.

`Cc1nc2ccc(N3CC[C@H](N(C)C)C3)nn2c1C(=O)Nc1ccncn1` [Compound 881]: the “Trp EC1.5 (μM)” value was “C (EC1.5>25 μM)” and the Emax was less than 350%.

For the compound `CN(C)[C@H]1CCN(c2ccc3ncc(C(=O)Nc4ccncn4)n3n2)C1` [Compound 882], the “Trp EC1.5 (μM)” value was “B (EC1.5 1-25 μM)” and the Emax is less than 350%.

`O=C(Nc1ccncc1F)c1cnc2ccc(-c3cccc(OC[C@H](O)CO)c3)nn12` [Compound 883]: the “Trp EC1.5 (μM)” value is “A (EC1.5<1 μM)” and the Emax was less than 350%.

`O=C(Nc1ccc(F)cn1)c1cnc2ccc(-c3cccc(OC[C@H](O)CO)c3)nn12` [Compound 884]: the “Trp EC1.5 (μM)” value is “B (EC1.5 1-25 μM)” and the Emax is less than 350%.

As to `Cc1nc2ccc(N3CC[C@H](N(C)C)C3)nn2c1C(=O)Nc1ncccn1` [Compound 885], the “Trp EC1.5 (μM)” value is “B (EC1.5 1-25 μM)” and the Emax was less than 350%.

For the compound `CN(C)[C@H]1CCN(c2ccc3ncc(C(=O)Nc4ncccn4)n3n2)C1` [Compound 886], the “Trp EC1.5 (μM)” value is “B (EC1.5 1-25 μM)” and the Emax is less than 350%.

On to `O=C(Nc1cccnn1)c1cnc2ccc(-c3cccc(OC[C@H](O)CO)c3)nn12` [Compound 887], for which the “Trp EC1.5 (μM)” value is “A (EC1.5<1 μM)” and the Emax is less than 350%.

As to `O=C(Nc1cncnc1)c1cnc2ccc(N3CC[C@H](F)C3)nn12` [Compound 888], the “Trp EC1.5 (μM)” value is recorded as “C (EC1.5>25 μM)” and the Emax was less than 350%.

As for `Cc1cncc(NC(=O)c2cnc3ccc(N4CC[C@H](F)C4)nn23)c1` [Compound 889], the “Trp EC1.5 (μM)” value is given as “B (EC1.5 1-25 μM)” and the Emax is less than 350%.

On to `O=C(Nc1cncc(F)c1)c1cnc2ccc(N3CC[C@H](F)C3)nn12` [Compound 890], for which the “Trp EC1.5 (μM)” value is on record as “B (EC1.5 1-25 μM)” and the Emax is less than 350%.

For the compound `Cn1ccc(NC(=O)c2cnc3ccc(N4CC[C@H](F)C4)nn23)n1` [Compound 891], the “Trp EC1.5 (μM)” value is listed as “B (EC1.5 1-25 μM)” and the Emax is no less than 350%.

Regarding `Cc1nc(NC(=O)c2cnc3ccc(N4CC[C@H](F)C4)nn23)sc1C` [Compound 892], the “Trp EC1.5 (μM)” value is “A (EC1.5<1 μM)” and the Emax was less than 350%.

For `Cc1cc(NC(=O)c2cnc3ccc(N4CC[C@H](F)C4)nn23)nc(C)n1` [Compound 893], the “Trp EC1.5 (μM)” value is “C (EC1.5>25 μM)” and the Emax was less than 350%.

In the case of `O=C(Nc1ccncn1)c1cnc2ccc(N3CCCC3)nn12` [Compound 894], the “Trp EC1.5 (μM)” value is “B (EC1.5 1-25 μM)” and the Emax was less than 350%.

Regarding `O=C(Nc1cccnn1)c1cnc2ccc(N3CCCC3)nn12` [Compound 895], the “Trp EC1.5 (μM)” value is on record as “C (EC1.5>25 μM)” and the Emax was less than 350%.

As for `O=C(Nc1cccnc1)c1cnc2ccc(N3CCCC3)nn12` [Compound 896], the “Trp EC1.5 (μM)” value is “B (EC1.5 1-25 μM)” and the Emax was less than 350%.

Take `O=C(Nc1ccc(F)cn1)c1cnc2ccc(N3CCCC3)nn12` [Compound 897]: the “Trp EC1.5 (μM)” value is reported as “C (EC1.5>25 μM)” and the Emax is less than 350%.

In the case of `O=C(Nc1ccncc1F)c1cnc2ccc(N3CCCC3)nn12` [Compound 898], the “Trp EC1.5 (μM)” value is “C (EC1.5>25 μM)” and the Emax is less than 350%.

`O=C(Nc1ccc(F)cn1)c1cnc2ccc(N3CCCC(C(F)(F)F)C3)nn12` (stereo not drawn) [Compound 900]: the “Trp EC1.5 (μM)” value was “A (EC1.5<1 μM)” and the Emax was less than 350%.

As to `Cc1cncc(NC(=O)c2cnc3ccc(N4CCCC(C(F)(F)F)C4)nn23)c1` (stereo not drawn) [Compound 901], the “Trp EC1.5 (μM)” value is reported as “A (EC1.5<1 μM)” and the Emax is no less than 350%.

As for `O=C(Nc1cccnn1)c1cnc2ccc(N3CCCC(C(F)(F)F)C3)nn12` (stereo not drawn) [Compound 902], the “Trp EC1.5 (μM)” value is “A (EC1.5<1 μM)” and the Emax was no less than 350%.

Regarding `O=C(Nc1ccncc1F)c1cnc2ccc(N3CCC(F)(F)C3)nn12` [Compound 903], the “Trp EC1.5 (μM)” value is recorded as “C (EC1.5>25 μM)” and the Emax is less than 350%.

Regarding `O=C(Nc1cccnn1)c1cnc2ccc(N3CCC(F)(F)C3)nn12` [Compound 904], the “Trp EC1.5 (μM)” value is reported as “B (EC1.5 1-25 μM)” and the Emax is no less than 350%.

In the case of `O=C(Nc1cnccn1)c1cnc2ccc(N3CCC(F)(F)C3)nn12` [Compound 905], the “Trp EC1.5 (μM)” value is “B (EC1.5 1-25 μM)” and the Emax was less than 350%.

For `O=C(Nc1ccncn1)c1cnc2ccc(N3CCC(F)(F)C3)nn12` [Compound 906], the “Trp EC1.5 (μM)” value is given as “B (EC1.5 1-25 μM)” and the Emax was less than 350%.

Turning to `O=C(Nc1ccc(F)cn1)c1cnc2ccc(N3CCC(F)(F)C3)nn12` [Compound 907], the “Trp EC1.5 (μM)” value is listed as “B (EC1.5 1-25 μM)” and the Emax is less than 350%.

Turning to `O=C(Nc1cccnc1)c1cnc2ccc(N3CCC(F)(F)C3)nn12` [Compound 908], the “Trp EC1.5 (μM)” value was “B (EC1.5 1-25 μM)” and the Emax was less than 350%.

As to `O=C(Nc1ccccn1)c1cnc2ccc(N3CCC(F)(F)C3)nn12` [Compound 909], the “Trp EC1.5 (μM)” value is recorded as “B (EC1.5 1-25 μM)” and the Emax was no less than 350%.

For `O=C(Nc1cncc(F)c1)c1cnc2ccc(N3CCCC(C(F)(F)F)C3)nn12` (stereo not drawn) [Compound 910], the “Trp EC1.5 (μM)” value is given as “A (EC1.5<1 μM)” and the Emax is no less than 350%.

For `CN(C)c1cccc(NC(=O)c2cnc3ccc(N4CC[C@H](F)C4)nn23)n1` [Compound 911], the “Trp EC1.5 (μM)” value is reported as “A (EC1.5<1 μM)” and the Emax was no less than 350%.

For `O=C(Nc1ccccn1)c1cnc2ccc(N3CC(F)(F)C3)nn12` [Compound 912], the “Trp EC1.5 (μM)” value is recorded as “B (EC1.5 1-25 μM)” and the Emax is less than 350%.

Take `O=C(Nc1cccnc1)c1cnc2ccc(N3CC(F)(F)C3)nn12` [Compound 913]: the “Trp EC1.5 (μM)” value is on record as “B (EC1.5 1-25 μM)” and the Emax was less than 350%.

For `O=C(Nc1ccc(F)cn1)c1cnc2ccc(N3CC(F)(F)C3)nn12` [Compound 914], the “Trp EC1.5 (μM)” value is given as “C (EC1.5>25 μM)” and the Emax is less than 350%.

As for `O=C(Nc1ccncc1F)c1cnc2ccc(N3CC(F)(F)C3)nn12` [Compound 915], the “Trp EC1.5 (μM)” value is “C (EC1.5>25 μM)” and the Emax is less than 350%.

With `O=C(Nc1cccnn1)c1cnc2ccc(N3CC(F)(F)C3)nn12` [Compound 916], the “Trp EC1.5 (μM)” value is recorded as “C (EC1.5>25 μM)” and the Emax was less than 350%.
